# According to ChEMBL document CHEMBL5356956, “Optimizing and characterizing 4-methyl substituted pyrazol-3-carboxamides leading to the peripheral cannabinoid 1 receptor inverse agonist TM38837” (Bioorg Med Chem Lett, 2024):
# Experiments:
# [1] = Subchronic toxicity in DIO mouse assessed as reduction in body weight at 10 mg/kg, po measured after 7 days; assay type: organism-based; design: scale not given: the % may be the effect or the level left; conditions: in vivo, 168 h, time 7 day
# [2] = Lipophilicity, logD of compound by chromatographic analysis; assay type: physicochemical
# Cannabinoid receptor 1 [3] = biological target: T1, Cannabinoid receptor 1 (Homo sapiens, UniProt P21554); test: Inverse agonist activity at human CB1 receptor expressed in CHO-K1 cell membrane by GTP-gamma-S assay; assay type: functional, cell membranes
# T1 sequence (P21554 whole entry): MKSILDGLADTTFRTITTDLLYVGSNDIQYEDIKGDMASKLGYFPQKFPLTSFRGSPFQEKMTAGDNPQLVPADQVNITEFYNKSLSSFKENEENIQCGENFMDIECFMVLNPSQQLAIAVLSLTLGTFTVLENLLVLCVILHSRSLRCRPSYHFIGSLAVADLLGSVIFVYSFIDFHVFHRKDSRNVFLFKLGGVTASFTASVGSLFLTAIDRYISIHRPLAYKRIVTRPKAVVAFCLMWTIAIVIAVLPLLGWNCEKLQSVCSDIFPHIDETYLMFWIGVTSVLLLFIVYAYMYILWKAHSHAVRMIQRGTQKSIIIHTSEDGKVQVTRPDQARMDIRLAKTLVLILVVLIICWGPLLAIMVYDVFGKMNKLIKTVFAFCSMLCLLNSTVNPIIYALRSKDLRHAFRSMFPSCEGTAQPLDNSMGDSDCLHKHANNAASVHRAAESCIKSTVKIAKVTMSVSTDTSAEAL
# [4] = Solubility of compound; assay type: physicochemical
# [5] = Clearance in rat hepatocytes assessed per million cells; assay type: ADME, cell-based, Hepatocyte
# Cannabinoid receptor 1 [6] = biological target: T1, Cannabinoid receptor 1; test: Inverse agonist activity at human CB1 receptor expressed in African green monkey COS7 cells co-expressing G-protein in presence of CP55940 by IP3 assay; assay type: functional, cell membranes, Membrane
# CYP2C9 = CYP2C9 (Homo sapiens, UniProt P11712); test: Inhibition of CYP2C9 (unknown origin) at 10 uM relative to control; assay type: ADME
# Sequence of CYP2C9 (P11712 whole entry): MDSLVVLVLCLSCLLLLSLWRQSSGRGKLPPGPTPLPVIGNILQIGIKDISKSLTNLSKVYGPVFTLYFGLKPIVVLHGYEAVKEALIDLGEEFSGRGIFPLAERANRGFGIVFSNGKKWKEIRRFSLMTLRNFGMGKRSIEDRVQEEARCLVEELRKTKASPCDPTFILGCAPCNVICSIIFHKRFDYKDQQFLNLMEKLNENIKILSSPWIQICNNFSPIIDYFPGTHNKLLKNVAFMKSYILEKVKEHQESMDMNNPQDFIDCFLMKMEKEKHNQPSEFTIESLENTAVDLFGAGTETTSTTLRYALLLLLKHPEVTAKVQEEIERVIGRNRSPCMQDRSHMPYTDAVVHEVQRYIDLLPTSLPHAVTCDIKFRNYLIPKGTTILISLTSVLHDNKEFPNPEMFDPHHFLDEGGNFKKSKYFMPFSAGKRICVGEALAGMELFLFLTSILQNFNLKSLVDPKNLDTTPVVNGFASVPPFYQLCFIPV
Structure (SMILES),Activity [1] [%],chromatographic logD [2],IC50 (Cannabinoid receptor 1 [3]) [nM],solubility [4] [µM],CLH [5] [µL/min/1e6 cells],IC50 (Cannabinoid receptor 1 [6]) [nM],inhibition at 10 µM (CYP2C9) [%]
Cc1c(C(=O)NN2CCCCC2)nn(-c2ccc(Cl)cc2Cl)c1-c1ccc(Cl)cc1 [RIMONABANT],14.5,–,–,–,–,–,–
NC(=O)Cc1c(C(=O)N2CCC(O)(c3cccc(F)c3)CC2)nn(-c2ccccc2Cl)c1-c1ccc(Cl)cc1,–,2.8,0.5,62,16,–,–
C[C@@H]1CC(O)(c2ccccc2F)C[C@H](C)N1C(=O)c1nn(-c2ccccc2Cl)c(-c2ccc(Cl)cc2)c1CC(N)=O (some centres not stated),–,3.6,0.7,29,–,–,–
O=C(O)Cc1c(C(=O)N2CCC(Oc3cccc(Cl)c3)CC2)nn(-c2ccccc2Cl)c1-c1ccc(Cl)cc1,–,2.8,51,–,32,10,–
O=C(O)Cc1c(C(=O)N2CCC(Oc3ccc(F)cc3)CC2)nn(-c2ccccc2Cl)c1-c1ccc(Cl)cc1,–,3.6,–,118,–,6,–
N#Cc1cccc(C2(O)CCN(C(=O)c3nn(-c4ccccc4Cl)c(-c4ccc(Cl)cc4)c3CC(N)=O)CC2)c1,–,2.6,0.4,70,–,–,–
CC(C)c1noc(C2(O)CCN(C(=O)c3nn(-c4ccccc4Cl)c(-c4ccc(Cl)cc4)c3CC(N)=O)CC2)n1,–,3.2,0.6,4,65,–,–
C[C@@H]1C[C@](O)(c2cccc(F)c2)CCN1C(=O)c1nn(-c2ccccc2Cl)c(-c2ccc(Cl)cc2)c1CC(N)=O,–,3,0.4,64,24,–,–
CCN1C(=O)OC2(CCN(C(=O)c3nn(-c4ccccc4Cl)c(-c4ccc(Cl)cc4)c3CC(N)=O)CC2)C1=O,–,2.7,1.3,28,21,–,–
C[C@@H]1CC(O)(c2cccc(F)c2)C[C@H](C)N1C(=O)c1nn(-c2ccccc2Cl)c(-c2ccc(Cl)cc2)c1CC(N)=O (some centres not stated),–,3.5,2.2,79,–,–,–
O=C(O)Cc1c(C(=O)N2CCC(Oc3cccc(F)c3)CC2)nn(-c2ccccc2Cl)c1-c1ccc(Cl)cc1,< 2,3.3,–,155,–,15,–
O=C(O)Cc1c(C(=O)N2CCC(Oc3ccc(OC(F)(F)F)cc3)CC2)nn(-c2ccccc2Cl)c1-c1ccc(Cl)cc1,–,3.2,–,176,–,10,–
O=C(c1nn(-c2ccccc2Cl)c(-c2ccc(Cl)cc2)c1Cc1nn[nH]n1)N1CCC(Oc2ccc(Cl)cc2)CC1,–,2.6,47,204,77,30,38
N#Cc1ccc(C2(O)CCN(C(=O)c3nn(-c4ccccc4Cl)c(-c4ccc(Cl)cc4)c3CC(N)=O)CC2)cc1,–,2.5,0.7,73,–,–,–
O=C(c1nn(-c2ccccc2Cl)c(-c2ccc(Cl)cc2)c1Cc1nn[nH]n1)N1CCC(c2ccccc2F)CC1,–,2.5,130,474,33,23,–
O=C(O)Cc1c(C(=O)N2CCC(Oc3ccc(F)c(F)c3)CC2)nn(-c2ccccc2Cl)c1-c1ccc(Cl)cc1,< 2,2.9,–,500,–,12,–
O=C(c1nn(-c2ccccc2Cl)c(-c2ccc(Cl)cc2)c1Cc1nn[nH]n1)N1CCC(Oc2cc(F)cc(F)c2)CC1,–,2.6,69,317,16,23,32
O=C(c1nn(-c2ccccc2Cl)c(-c2ccc(Cl)cc2)c1Cc1nn[nH]n1)N1CCC(Oc2cccc(F)c2F)CC1,–,2.5,110,396,14,61,–
O=C(O)Cc1c(C(=O)N2CCC(Oc3ccc(C(F)(F)F)cc3)CC2)nn(-c2ccccc2Cl)c1-c1ccc(Cl)cc1,–,3.1,–,374,17,7,–

Structure (SMILES),Activity [1] [%],chromatographic logD [2],IC50 (Cannabinoid receptor 1 [3]) [nM],solubility [4] [µM],CLH [5] [µL/min/1e6 cells],IC50 (Cannabinoid receptor 1 [6]) [nM],inhibition at 10 µM (CYP2C9) [%]
O=C(O)Cc1c(C(=O)N2CCC(Oc3ccc(Cl)cc3F)CC2)nn(-c2ccccc2Cl)c1-c1ccc(Cl)cc1,–,3.4,–,83,28,8,–
CC(=O)N1CCC(NC(=O)c2nn(-c3ccccc3Cl)c(-c3ccc(Cl)cc3)c2CC(N)=O)CC1,–,1.8,11,51,4,–,–
O=C(O)Cc1c(C(=O)N2CCC(Oc3cc(F)cc(F)c3)CC2)nn(-c2ccccc2Cl)c1-c1ccc(Cl)cc1,–,3.2,–,171,–,8,–
N=C(Cc1c(C(=O)NN2CCCCC2)nn(-c2ccccc2Cl)c1-c1ccc(Cl)cc1)NO,–,2.9,–,–,–,–,–
N#Cc1cccc(OC2CCN(C(=O)c3nn(-c4ccccc4Cl)c(-c4ccc(Cl)cc4)c3CC(=O)O)CC2)c1,–,3.3,–,107,26,53,–
O=C(O)Cc1c(C(=O)N2CCC(Oc3cccc(F)c3F)CC2)nn(-c2ccccc2Cl)c1-c1ccc(Cl)cc1,–,2.5,–,500,–,15,–
C[C@@H](NC(=O)c1nn(-c2ccccc2Cl)c(-c2ccc(Cl)cc2)c1Cc1nnn[nH]1)c1cccc(F)c1,5.2,2.1,86,–,–,64,–
O=C(O)Cc1c(C(=O)N2CCC(Oc3cccc(C(F)(F)F)c3)CC2)nn(-c2ccccc2Cl)c1-c1ccc(Cl)cc1,–,2.7,–,500,35,24,–
C[C@@H](NC(=O)c1nn(-c2ccccc2Cl)c(-c2ccc(Cl)cc2)c1Cc1nn[nH]n1)c1ccc(F)c(Cl)c1,2.4,2.8,63,–,–,32,–
O=C(c1nn(-c2ccccc2Cl)c(-c2ccc(Cl)cc2)c1Cc1nn[nH]n1)N1CCC(Oc2ccc(C(F)(F)F)cc2)CC1,–,2.9,120,140,12,23,–
N#Cc1ccc(CNC(=O)c2nn(-c3ccccc3Cl)c(-c3ccc(Cl)cc3)c2CC(N)=O)cc1,–,2.9,0.3,16,–,–,–
O=C(O)Cc1c(C(=O)N2CCC(Oc3ccc(Cl)cc3)CC2)nn(-c2ccccc2Cl)c1-c1ccc(Cl)cc1,–,2.7,30,–,7,11,–
C[C@@H](NC(=O)c1nn(-c2ccccc2Cl)c(-c2ccc(Cl)cc2)c1CC(N)=O)c1ccc(C(F)(F)F)nc1,–,3.3,0.4,21,6,–,–
O=C(c1nn(-c2ccccc2Cl)c(-c2ccc(Cl)cc2)c1Cc1nn[nH]n1)N1CCC(Oc2ccc(F)cc2)CC1,–,2.4,170,500,13,41,–
NC(=O)Cc1c(C(=O)N2CCC(Oc3cccc(F)c3)CC2)nn(-c2ccccc2Cl)c1-c1ccc(Cl)cc1,–,3.7,0.3,9,48,–,–
CC(C)S(=O)(=O)N1CCC(NC(=O)c2nn(-c3ccccc3Cl)c(-c3ccc(Cl)cc3)c2CC(N)=O)CC1,–,2.8,1.9,33,17,–,–
C[C@@H](NC(=O)c1nn(-c2ccccc2Cl)c(-c2ccc(Cl)cc2)c1Cc1nn[nH]n1)c1ccc(Br)cc1,–,2.4,–,–,–,72,–
CS(=O)(=O)N1CCC(NC(=O)c2nn(-c3ccccc3Cl)c(-c3ccc(Cl)cc3)c2CC(N)=O)CC1,–,2.4,9.5,61,8,–,–
NC(=O)Cc1c(C(=O)N2CCC(O)(c3ccccc3F)CC2)nn(-c2ccccc2Cl)c1-c1ccc(Cl)cc1,–,2.8,0.5,66,–,–,–
